Where two headings read alike, the source gives them in different places.

In one test the target is T1, pSTAT6 (Homo sapiens, UniProt P42226).
T1 construct: pY641-STAT6 MSD read-out
T1 sequence (P42226 1-847): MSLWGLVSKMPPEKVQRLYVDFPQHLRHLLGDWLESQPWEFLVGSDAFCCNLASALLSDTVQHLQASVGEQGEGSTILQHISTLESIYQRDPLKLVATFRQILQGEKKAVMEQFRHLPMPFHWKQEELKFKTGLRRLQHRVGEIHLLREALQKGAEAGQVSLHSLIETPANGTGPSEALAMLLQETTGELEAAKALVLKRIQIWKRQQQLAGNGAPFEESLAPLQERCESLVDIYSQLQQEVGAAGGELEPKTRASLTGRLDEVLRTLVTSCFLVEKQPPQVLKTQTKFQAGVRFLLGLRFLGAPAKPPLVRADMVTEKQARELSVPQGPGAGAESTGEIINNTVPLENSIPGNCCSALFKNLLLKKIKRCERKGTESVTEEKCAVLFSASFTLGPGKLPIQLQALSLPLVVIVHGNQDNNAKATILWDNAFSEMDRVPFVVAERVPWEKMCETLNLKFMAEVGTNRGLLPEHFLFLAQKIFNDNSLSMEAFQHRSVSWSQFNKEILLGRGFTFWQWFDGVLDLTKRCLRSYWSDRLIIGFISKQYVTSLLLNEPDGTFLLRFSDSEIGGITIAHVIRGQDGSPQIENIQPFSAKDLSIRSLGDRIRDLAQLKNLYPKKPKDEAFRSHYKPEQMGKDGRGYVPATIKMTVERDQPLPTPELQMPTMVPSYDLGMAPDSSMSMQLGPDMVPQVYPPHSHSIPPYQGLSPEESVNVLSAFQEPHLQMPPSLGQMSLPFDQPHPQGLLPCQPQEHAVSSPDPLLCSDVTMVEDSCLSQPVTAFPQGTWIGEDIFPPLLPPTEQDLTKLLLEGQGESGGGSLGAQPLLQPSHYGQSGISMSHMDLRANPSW
Kind of test: MSD-pSTAT-PBMC Assay, pSTAT6 (IL-4 stimulated PBMC). The test is classed as cell-based. The source says: Cryopreserved Peripheral Blood Mononuclear Cells (PBMC) are from AllCells. Recombinant Human IL-4 and IL-6 are from Peprotech. Mouse monoclonal anti-STAT3 antibody, rabbit monoclonal anti-pY705-STAT3 antibody, rabbit monoclonal Anti-pY641-STAT6 antibody, and lysis buffer are from Cell Signaling Technology (CST). Mouse monoclonal anti-STAT6 antibody is from BioLegend. Assay plates, blocker, and anti-rabbit secondary antibody are from Meso Scale Discovery (MSD).
Cryopreserved PBMCs were thawed out and allowed to recover overnight in IMDM+10% heat-inactivated FBS prior to plating 50,000 (STAT3) or 25,000 (STAT6) cells per well in 96-well U-bottom tissue culture plates. Cells were treated with compound for 3 hrs. then stimulated with 10 ng/mL IL-6 (STAT3) or 1 ng/mL IL-4 (STAT6) for 10 min. Cells were then spun down and washed with ice-cold PBS prior to lysing the cell pellet with 1× lysis buffer (CST) with 1×HALT protease and phosphatase inhibitor cocktail (Thermo). Lysates were transferred to and incubated overnight at 4° C. with shaking in QuickPlex 96-well high bind assay plates (MSD) pre-coated overnight with 30 μL per well of 0.6 μg/mL mouse monoclonal anti-STAT3 antibody (STAT3) or 2 μg/mL mouse monoclonal anti-STAT6 antibody (STAT6) in 1×PBS, and pre-blocked for 1 hour with 3% Blocker-A (MSD). Captured protein in the assay plates were then washed and probed with 25 μL per well of 0.25 μg/ml rabbit monoclonal anti-pY705-STAT3 antibody (STAT3) or 0.18 μg/ml rabbit monoclonal Anti-pY641-STAT6 antibody (STAT6) in 1% Blocker-A for 1 hour at room temperature with shaking, then washed and probed with 25 ul per well of 1 ug/ml Sulfo-TAG Labeled Goat Anti-Rabbit Antibody (MSD) in 1% Blocker-A for 1 hour at room temperature with shaking. Assay plates were then washed and 150 μL of 1× Read Buffer-T (MSD) was added to each well prior to reading on an SQ120 MSD Plate Reader. Assay signal from each sample was subtracted by the signal from unstimulated control wells and normalized to DMSO control wells. IC50 values were calculated using Graph Pad Prism Dose-Response Nonlinear Regression with variable slope. For both pSTAT3 and pSTAT6 A=≤100 nM; B=>100-1000 nM; C=>1000-3000 nM; and D=>3 μM.

Another test deals with T2, STAT3 (Homo sapiens, UniProt P40763).
T2 construct: Recombinant STAT3 protein (STAT3(G127-1722))
T2 sequence (P40763 127-722 limits assumed): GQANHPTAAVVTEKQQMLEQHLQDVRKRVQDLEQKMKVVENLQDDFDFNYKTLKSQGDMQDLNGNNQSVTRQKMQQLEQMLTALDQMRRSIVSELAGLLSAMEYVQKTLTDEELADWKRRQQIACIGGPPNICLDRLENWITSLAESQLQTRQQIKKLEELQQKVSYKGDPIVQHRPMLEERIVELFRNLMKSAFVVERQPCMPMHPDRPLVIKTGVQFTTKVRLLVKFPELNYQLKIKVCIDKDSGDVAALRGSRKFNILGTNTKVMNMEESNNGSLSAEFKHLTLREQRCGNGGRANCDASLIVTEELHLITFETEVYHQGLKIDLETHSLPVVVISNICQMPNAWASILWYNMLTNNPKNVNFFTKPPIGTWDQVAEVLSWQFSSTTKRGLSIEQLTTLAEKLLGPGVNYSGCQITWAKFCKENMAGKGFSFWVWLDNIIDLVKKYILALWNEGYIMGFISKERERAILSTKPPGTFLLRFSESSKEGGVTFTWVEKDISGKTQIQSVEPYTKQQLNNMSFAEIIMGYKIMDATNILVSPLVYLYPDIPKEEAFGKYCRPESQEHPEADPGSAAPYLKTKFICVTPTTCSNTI
Kind of test: STAT3 Fluorescence Polarization (FP) Assay. To be noted: recombinant STAT3 25 nM; probe 5-FAM-GpYLPQTV-NH2 2 nM; 45 min, room temperature; read-out: STAT3 FP IC50. It is filed as binding. How it is done: STAT3 Fluorescence Polarization (FP) Assay
An FP assay was developed to determine IC50 values for test substances. Recombinant STAT3 protein (STAT3(G127-1722)) at 25 nM was combined with a fluorescently labeled, phosphotyrosine peptide probe (5-FAM-GpYLPQTV-NH2) at 2 nM in FP buffer (10 mM HEPES pH 7.4, 50 mM NaCl, 1 mM EDTA, 0.05% Tween 20.2 mM DTT). 50 μL of STAT3-probe mixture was added to serial diluted compounds in black, 96-well plates (Greiner BioOne 655076) to a final concentration of 1% DMSO. Reaction components were mixed, and FP was measured after 45-minute incubation at room temperature using a Tecan Spark multimode plate reader. FP signal (mP) was plotted against the log concentration of the test substances and IC50 values were calculated by nonlinear regression analysis using GraphPad Prism software. For STAT3 FP assay. A=≤100 nM; B=>100-1000 nM; C=>1-10 μM; and D=>10 μM.
A general note: In fluorescence polarisation assays a small probe gives low polarisation when free and higher when bound to something large.

Where [1] appears, read: read-out: pSTAT6 IC50, compound 3 hrs, then 1 ng/mL IL-4 for 10 min, pY641-STAT6.
Where [2] appears, read: compound 3 hrs, then 1 ng/mL IL-4 for 10 min, pY641-STAT6, read-out: pSTAT6 IC50.

On to `CCCOC(=O)[C@H](C)NP(=O)(Cc1ccc2ccc(C(=O)N[C@H]3CN(C(=O)c4n[nH]c5ccc(C)cc45)CC[C@H]4CC[C@@H](C(=O)N(C)CCCCCCC#Cc5cccc6c5CN(C5CCC(=O)NC5=O)C6=O)N4C3=O)cc2c1)Oc1ccccc1` (stereo partly drawn) [Compound 16, propyl (((7-(((5S,8S,10aR)-8-((8-(2-(2,6-dioxopiperidin-3-yl)-1-oxoisoindolin-4-yl)oct-7-yn-1-yl)(methyl)carbamoyl)-3-(5-methyl-1H-indazole-3-carbonyl)-6-oxodecahydropyrrolo[1,2-a][1,5]diazocin-5-yl)carbamoyl)naphthalen-2-yl)methyl)(phenoxy)phosphoryl)-L-alaninate], for which, at pSTAT6 (setting [1]), the IC50 is more than 3 µM.
On to `Cc1ccc2onc(C(=O)N3CC[C@H]4CC[C@@H](C(=O)N(C)CCCCCCC#Cc5cccc6c5CN(C5CCC(=O)NC5=O)C6=O)N4C(=O)[C@@H](NC(=O)c4ccc5ccc(C(F)(F)P(=O)(O)OCCSC(=O)C(C)(C)C)cc5c4)C3)c2c1` (stereo partly drawn) [Compound 17, S-(2-((((7-(((5S,8S,10aR)-8-((8-(2-(2,6-dioxopiperidin-3-yl)-1-oxoisoindolin-4-yl)oct-7-yn-1-yl)(methyl)carbamoyl)-3-(5-methylbenzo[d]isoxazole-3-carbonyl)-6-oxodecahydropyrrolo[1,2-a][1,5]diazocin-5-yl)carbamoyl)naphthalen-2-yl)difluoromethyl)(hydroxy)phosphoryl)oxy)ethyl) 2,2-dimethylpropanethioate], for which, on pSTAT6 (setting [2]), the IC50 is more than 3 µM.
As to `Cc1ccc2onc(C(=O)N3CC[C@H]4CC[C@@H](C(=O)N(C)CCCCCCC#Cc5cccc6c5CN(C5CCC(=O)NC5=O)C6=O)N4C(=O)[C@@H](NC(=O)c4ccc5ccc(C(F)(F)P(=O)(OCCSC(=O)C(C)(C)C)OCCSC(=O)C(C)(C)C)cc5c4)C3)c2c1` (stereo partly drawn) [Compound 18, S,S′-(((((7-(((5S,8S,10aR)-8-((8-(2-(2,6-dioxopiperidin-3-yl)-1-oxoisoindolin-4-yl)oct-7-yn-1-yl)(methyl)carbamoyl)-3-(5-methylbenzo[d]isoxazole-3-carbonyl)-6-oxodecahydropyrrolo[1,2-a][1,5]diazocin-5-yl)carbamoyl)naphthalen-2-yl)difluoromethyl)phosphoryl)bis(oxy))bis(ethane-2,1-diyl)) bis(2,2-dimethylpropanethioate)], the IC50 at pSTAT6 (setting [2]) is less than 0.1 µM.
On the same count and under the same terms, next, `Cc1ccc2onc(C(=O)N3CC[C@H]4CC[C@@H](C(=O)N(C)CCCCCCC#Cc5cccc6c5CN(C5CCC(=O)NC5=O)C6=O)N4C(=O)[C@@H](NC(=O)c4ccc5ccc(C(F)(F)P(=O)(OCOC(=O)OC(C)C)OCOC(=O)OC(C)C)cc5c4)C3)c2c1` (stereo partly drawn) [Compound 19, ((((7-(((5S,8S,10aR)-8-((8-(2-(2,6-dioxopiperidin-3-yl)-1-oxoisoindolin-4-yl)oct-7-yn-1-yl)(methyl)carbamoyl)-3-(5-methylbenzo[d]isoxazole-3-carbonyl)-6-oxodecahydropyrrolo[1,2-a][1,5]diazocin-5-yl)carbamoyl)naphthalen-2-yl)difluoromethyl)phosphoryl)bis(oxy))bis(methylene) diisopropyl bis(carbonate)]: less than 0.1 µM; `Cc1ccc2onc(C(=O)N3CC[C@H]4CC[C@@H](C(=O)N(C)CCCCCCC#Cc5cccc6c5CN(C5CCC(=O)NC5=O)C6=O)N4C(=O)[C@@H](NC(=O)c4ccc5ccc(C(F)(F)P(=O)(O)OCOC(=O)OC(C)C)cc5c4)C3)c2c1` (stereo partly drawn) [Compound 20, ((((7-(((5S,8S,10aR)-8-((8-(2-(2,6-dioxopiperidin-3-yl)-1-oxoisoindolin-4-yl)oct-7-yn-1-yl)(methyl)carbamoyl)-3-(5-methylbenzo[d]isoxazole-3-carbonyl)-6-oxodecahydropyrrolo[1,2-a][1,5]diazocin-5-yl)carbamoyl)naphthalen-2-yl)difluoromethyl)(hydroxy)phosphoryl)oxy)methyl isopropyl carbonate]: 1 to 3 µM.
Same read-out and setting: the result for `Cc1ccc2onc(C(=O)N3CC[C@H]4CC[C@@H](C(=O)N(C)CCCCCCC#Cc5cccc6c5CN(C5CCC(=O)NC5=O)C6=O)N4C(=O)[C@@H](NC(=O)c4ccc5ccc(C(F)(F)P(=O)(O)OCCSC(=O)CC(C)C)cc5c4)C3)c2c1` (stereo partly drawn) [Compound 23, S-(2-((((7-(((5S,8S,10aR)-8-((8-(2-(2,6-dioxopiperidin-3-yl)-1-oxoisoindolin-4-yl)oct-7-yn-1-yl)(methyl)carbamoyl)-3-(5-methylbenzo[d]isoxazole-3-carbonyl)-6-oxodecahydropyrrolo[1,2-a][1,5]diazocin-5-yl)carbamoyl)naphthalen-2-yl)difluoromethyl)(hydroxy)phosphoryl)oxy)ethyl) 3-methylbutanethioate] reads more than 3 µM.
Take `CCCOC(=O)[C@H](C)NP(=O)(Oc1ccccc1)C(F)c1ccc2ccc(C(=O)N[C@H]3CN(C(=O)c4noc5ccc(C)cc45)CC[C@H]4CC[C@@H](C(=O)N(C)CCCCCCC#Cc5cccc6c5CN(C5CCC(=O)NC5=O)C6=O)N4C3=O)cc2c1` (stereo partly drawn) [Compound 26, propyl (((7-(((5S,8S,10aR)-8-((8-(2-(2,6-dioxopiperidin-3-yl)-1-oxoisoindolin-4-yl)oct-7-yn-1-yl)(methyl)carbamoyl)-3-(5-methylbenzo[d]isoxazole-3-carbonyl)-6-oxodecahydropyrrolo[1,2-a][1,5]diazocin-5-yl)carbamoyl)naphthalen-2-yl)fluoromethyl)(phenoxy)phosphoryl)-L-alaninate]: the IC50 at pSTAT6 (setting [1]) is more than 3 µM.
Turning to `CC(=O)N[C@H](C(=O)N1C[C@H](O)C[C@H]1C(=O)NCc1ccc(-c2scnc2C)cc1OCCCCN(C)C(=O)[C@@H]1CC[C@@H]2CCN(C(=O)c3noc4ccc(C)cc34)C[C@H](NC(=O)c3ccc4ccc(C(F)(F)P(=O)(O)O)cc4c3)C(=O)N21)C(C)(C)C` [Compound 31, ((7-(((5S,8S,10aR)-8-((4-(2-(((2S,4R)-1-((S)-2-acetamido-3,3-dimethylbutanoyl)-4-hydroxypyrrolidine-2-carboxamido)methyl)-5-(4-methylthiazol-5-yl)phenoxy)butyl)(methyl)carbamoyl)-3-(5-methylbenzo[d]isoxazole-3-carbonyl)-6-oxodecahydropyrrolo[1,2-a][1,5]diazocin-5-yl)carbamoyl)naphthalen-2-yl)difluoromethyl)phosphonic acid], the figures for the IC50 on STAT3 and at pSTAT6 (setting [2]) were 1 to 10 µM and more than 3 µM, respectively.
